{"source": "patent EP2269600A1", "about": "“Treatment of sleep disorders using eplivanserin in COPD patients” (Sanofi-Aventis, priority 2009, dated 2011)", "key": {"[1]": {"test_system": "patients with mild to moderate COPD", "test": "COPD phase I study: overnight pulse oximetry (oxygen saturation)", "type": "in vivo", "method": "(§1) The primary objective of this phase I study was to evaluate the pharmacodynamic (PD) effects of eplivanserin 15 mg single dose versus placebo (P) on respiratory function measured by mean overnight oxygen saturation (SaO2) in patients with mild to moderate COPD. Recorded PD parameters were: • Pulse oximetry continuously recorded overnight, with 02 saturation in %, • Pulmonary function tests (PFTs): spirometry [measuring forced vital capacity (FVC), forced expiratory volume (FEV), peak […] flow rate (PEFR), forced […] flow (FEF)] and plethysmography [evaluating airways resistance and conductance], • Capillary blood gases, • PSG with apnea /hypopnea episodes, sleep global sleep parameters and sleep architecture, • Leeds Sleep Evaluation Questionnaire (LSEQ) and Bond & Lader VAS. Safety and pharmacokinetic parameters were also assessed.\n(§2) The study was a single-centre, double-blind, randomized, 2-way crossover, placebo-controlled crossover study with 14 day washout: 15 mg single-dose of eplivanserin (E) vs. placebo (P). Included patients were displaying mild to moderate chronic obstructive pulmonary disease (COPD). The primary end-point was the pulmonary function (02 saturation over the entire night). 28 evaluable patients have been evaluated (COPD severity (FEV1) 50% mild / 50% moderate; Gender: 46.4% M, 53.6% F)"}, "[2]": {"test_system": "patients with mild to moderate COPD", "test": "COPD phase I study: Leeds Sleep Evaluation Questionnaire and Bond & Lader VAS", "type": "in vivo", "conditions": "15 mg single dose", "method": "as §1, §2"}, "[3]": {"test_system": "patients with chronic (primary) insomnia characterized by sleep maintenance difficulties", "test": "Phase 3 study EFC6220: polysomnography (PSG) recordings, 6 weeks, placebo-controlled", "type": "in vivo", "source_text": "(§3) The Phase 3 program of development of eplivanserin in the treatment of patients with chronic (primary) insomnia characterized by sleep maintenance difficulties consisted of 3 randomized, double-blind (DB), placebo-controlled, efficacy and safety studies designed to assess the efficacy of eplivanserin on sleep maintenance either using polysomnography (PSG) recordings (6-week study EFC6220) or patient-reported outcome (12-week studies LTE6217 and LTE6262) collected daily on sleep questionnaires. They were all double-blind (DB), randomized, placebo-controlled studies. In all studies, treatment period was preceded by a one week, placebo run-in period, designed to check selection criteria for insomnia based on patient reported sleep parameters collected on the daily sleep questionnaires (Studies LTE6217, and LTE6262) or based on PSG recordings during two screening nights in a sleep laboratory (Study EFC6220). Treatment period was followed by a placebo run-out period of 2 weeks designed to assess the effect of abrupt treatment discontinuation. Study EFC6220 was designed to measure the pharmacodynamic activity of eplivanserin on sleep maintenance using PSG recordings in a sleep laboratory. Polysomnograms were recorded in standard conditions during 8 hours in bed. Studies LTE6217 and LTE6262 measured the efficacy of eplivanserin in real life conditions of use at home by collecting daily sleep parameters reported by patients through an Interactive Voice Response System (IVRS)."}, "[4]": {"test_system": "patients with mild to moderate COPD", "test": "COPD phase I study: capillary blood gases", "type": "in vivo", "conditions": "15 mg single dose", "method": "as §1, §2"}, "[5]": {"test_system": "patients with mild to moderate COPD", "test": "COPD phase I study: plethysmography", "type": "in vivo", "method": "as §1, §2"}, "[6]": {"test_system": "patients with chronic (primary) insomnia characterized by sleep maintenance difficulties", "test": "Phase 3 studies LTE6217 and LTE6262: patient-reported sleep parameters, 12 weeks, placebo-controlled", "type": "in vivo", "source_text": "as §3"}, "[7]": {"test_system": "patients with mild to moderate COPD", "test": "COPD phase I study: PSG (apnea/hypopnea episodes, sleep parameters)", "type": "in vivo", "conditions": "15 mg single dose", "method": "as §1, §2"}, "[8]": {"test_system": "patients with mild to moderate COPD", "test": "COPD phase I study: spirometry", "type": "in vivo", "conditions": "Eplivanserin 15 mg single dose minus Placebo", "method": "as §1, §2"}, "[9]": {"test_system": "patients with mild to moderate COPD", "test": "COPD phase I study: safety and tolerability", "type": "in vivo", "conditions": "for safety / tolerability: 15 mg single dose, mild or moderate COPD", "method": "as §1, §2"}, "[10]": {"conditions": "cited from earlier work"}, "[11]": {"conditions": "5 mg/day, after 6 and 12 weeks of treatment"}}, "data": [{"smiles": "CN(C)CCO/N=C(/C=C/c1ccc(O)cc1)c1ccccc1F", "note": "[Eplivanserin, (1Z, 2E)-1-(2-fluorophenyl)-3-(4-hydroxyphenyl)-prop-2-en-1-one-O-(2-dimethylaminoethyl)oxime]", "values": [{"measurement": "SaO2 (%) during Time in bed, treatment difference LS mean", "setting": "[1]; Eplivanserin 15 mg single dose minus Placebo, P-value 0.2499", "result": -0.30, "unit": "%"}, {"measurement": "Mean oxygen saturation over the entire night (mean ± SD)", "setting": "[1]; eplivanserin 15 mg single dose, finger pulse oximetry", "result": "93.4 % ± 1.66"}, {"measurement": "SaO2 (%) during the sleep stages (stage 1, 2, SWS, REM, wake)", "setting": "[1]; single dose 15 mg vs placebo", "result": "no effect"}, {"measurement": "LSEQ and Bond & Lader VAS post-treatment scores vs baseline", "setting": "[2]", "result": "minimally or unaffected"}, {"measurement": "Stage 1", "setting": "[3]; 5 mg/day compared with placebo", "result": "decrease of Stage 1"}, {"measurement": "percentage of time spent in sleep Stages 3&4 (SWS or deep sleep)", "setting": "[3]; 5 mg/day compared with placebo", "result": "increased"}, {"measurement": "PSG-WASO", "setting": "[3]; Week 3 and Week 6, difference with placebo not statistically significant at Week 6", "result": "decreasing PSG-WASO at Week 3 and Week 6"}, {"measurement": "number of brief awakenings (<1 min)", "setting": "[3]; compared to placebo", "result": "decreased"}, {"measurement": "sleep onset (PSG-LPS and pr-SOL)", "setting": "[3]; eplivanserin 5 mg", "result": "did not affect sleep onset"}, {"measurement": "PSG-NAW (LS mean)", "setting": "[3]; eplivanserin 5 mg, Week 3, p<0.0001", "result": -1.74}, {"measurement": "pr-NAW", "setting": "[3]; eplivanserin 5 mg, Week 3 and Week 6", "result": "decrease of pr-NAW"}, {"measurement": "PSG-NAW (LS mean)", "setting": "[3]; eplivanserin 5 mg, Week 6, p<0.0001", "result": -1.82}, {"measurement": "QoS", "setting": "[3]; in vivo", "result": "improved"}, {"measurement": "REM sleep", "setting": "[3]; in vivo", "result": "not affected"}, {"measurement": "SWS/WASO + Stage 1 index", "setting": "[3]; in vivo", "result": "increase"}, {"measurement": "Capillary blood gases (pH, oxygen partial pressure)", "setting": "[4]", "result": "minimally or unaffected"}, {"measurement": "airways resistance and conductance in each patient's subgroup (mild, moderate)", "setting": "[5]; 15 mg single dose vs placebo", "result": "no difference"}, {"measurement": "Airways resistance, treatment difference LS mean", "setting": "[5]; Eplivanserin 15 mg single dose minus Placebo, P-value 0.4880", "result": 0.02, "unit": "KPa * s/l"}, {"measurement": "Airways conductance, treatment difference LS mean", "setting": "[5]; Eplivanserin 15 mg single dose minus Placebo, P-value 0.6642", "result": "-0.01 1/KPa * s"}, {"measurement": "effect on sleep maintenance (pr-WASO), onset and persistence", "setting": "[6]; 5 mg/day", "result": "observed from Day 1 and persisted up to 1 year of treatment"}, {"measurement": "mean pr-NAW", "setting": "[6]; [11]", "result": "reducing"}, {"measurement": "pr-TST", "setting": "[6]; [11]", "result": "increasing"}, {"measurement": "pr-WASO", "setting": "[6]; [11]", "result": "consistently and significantly decreasing"}, {"measurement": "Quality of Sleep and Refreshing Quality of Sleep", "setting": "[6]; after 6 and 12 weeks of treatment", "result": "improved"}, {"measurement": "\"sleepiness in the morning\" and \"ability to concentrate\"", "setting": "[6]; compared with placebo, reported by insomniac patients", "result": "significantly favorable effect"}, {"measurement": "sleep onset", "setting": "[6]; human, in vivo", "result": "did not affect sleep onset"}, {"measurement": "potential for residual effects (next-day impairment)", "setting": "[6]; safety analyses", "result": "devoid of next-day impairment"}, {"measurement": "AHI (apnea hypopnea index)", "setting": "[7]", "result": "reduction"}, {"measurement": "LPS (latency to persistent sleep)", "setting": "[7]", "result": "no change"}, {"measurement": "TST (total sleep time)", "setting": "[7]", "result": "increase"}, {"measurement": "WASO (waketime duration after sleep onset)", "setting": "[7]", "result": "reduction"}, {"measurement": "number of awakenings after sleep onset", "setting": "[7]", "result": "reduction"}, {"measurement": "Forced vital capacity, treatment difference LS mean", "setting": "[8]; P-value 0.1411", "result": -0.12, "unit": "L"}, {"measurement": "Forced expiratory volume, treatment difference LS mean", "setting": "[8]; P-value 0.5289", "result": -0.03, "unit": "L"}, {"measurement": "Peak expiratory flow, treatment difference LS mean", "setting": "[8]; P-value 0.6683", "result": -0.05, "unit": "L/S"}, {"measurement": "safety / tolerability", "setting": "[9]", "result": "well tolerated"}, {"measurement": "safety / tolerability", "setting": "[9]; listed as eplivanserin", "result": "no safety concern"}, {"measurement": "impairment of respiratory function (SaO2%, spirometry, body plethysmography)", "setting": "[9]; oral single dose 15 mg, in comparison with placebo", "result": "no impairment of respiratory function was observed"}, {"measurement": "half-life time", "setting": "[10]; average value", "result": 50, "unit": "h"}, {"measurement": "absorbed", "setting": "[10]; human, in vivo", "result": "> 70", "unit": "%"}]}]}
